SMILES strings stand for the structures.

In this assay the target is Bcl-2-like protein 1 (Bcl-XL) (Homo sapiens) (UniProt Q07817). Nature of the assay: Displacement of fluorescein labeled BAD peptide from Bcl-XL by fluorescence polarization assay. For orientation: In fluorescence polarisation assays a small probe gives low polarisation when free and higher when bound to something large.
Bcl-2-like protein 1 (Bcl-XL) (Homo sapiens), sequence (Q07817 whole entry, looked up): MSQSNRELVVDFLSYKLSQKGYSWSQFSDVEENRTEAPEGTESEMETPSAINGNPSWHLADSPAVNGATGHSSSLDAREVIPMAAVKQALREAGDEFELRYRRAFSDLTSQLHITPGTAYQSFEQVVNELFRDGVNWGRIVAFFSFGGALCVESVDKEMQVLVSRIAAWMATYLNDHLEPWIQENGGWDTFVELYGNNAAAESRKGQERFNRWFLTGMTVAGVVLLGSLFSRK

For orientation: Ki means a measure of affinity in units of concentration, obtained from inhibition or displacement. A lower Ki goes with a stronger hold on the target. `CN(C)CC[C@H](CSc1ccccc1)Nc1ccc(S(=O)(=O)NC(=O)c2ccc(N3CCN(CC4=C(c5ccc(Cl)cc5)CCC(C)(C)C4)CC3)cc2)cc1[N+](=O)[O-]` [(R)-4-(4-((2-(4-Chlorophenyl)-5,5-dimethylcyclohex-1-enyl)methyl)piperazin-1-yl)-N-(4-(4-(dimethylamino)-1-(phenylthio)butan-2-ylamino)-3-nitrophenylsulfonyl)benzamide] displayed a Ki of 1.4 nM. This counts as single-digit nanomolar.

On to `CN(C)CC[C@H](CSc1ccccc1)Nc1ccc(S(=O)(=O)NC(=O)c2ccc(N3CCN(Cc4ccccc4-c4ccc(Cl)cc4)CC3)cc2)cc1` [(R)-4-(4-((4'-Chlorobiphenyl-2-yl)methyl)piperazin-1-yl)-N-(4-(4-(dimethylamino)-1-(phenylthio)butan-2-ylamino)phenylsulfonyl)benzamide], for which the affinity corresponds to a Ki of 14 nM.

For the origin of these results see BindingDB's records for doi:10.1021/jm800669s (Abbott Laboratories, 2008).
